What was measured:
Assay in all cases: relative viability (nuclei count vs DMSO), 5 days (fraction); higher = more cells survive
[1] = compound: O=C(O)C(Cc1ccccc1[N+](=O)[O-])=NNc1nc(-c2ccc(Cl)c(Cl)c2)cs1 (mixture of isomers) [4EGI-1] + Cc1cc(Nc2cc(N3CCN(C)CC3)nc(Sc3ccc(NC(=O)C4CC4)cc3)n2)n[nH]1 [Tozasertib] (partner 0.1 µM)
How it was run: (§1)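 Relative viability equals treated-well nuclei counts divided by vehicle-well nuclei counts. Counts came from 4× images of lung cancer cell lines grown in 1536-well plates for 5 days after pin-tool dosing on the day after seeding. Dosing used one drug alone or a fixed anchor-drug dose plus five library-drug doses (not always all listed) in √10 steps, and values are medians of duplicate plates.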

[2] = compound: O=C(O)C(Cc1ccccc1[N+](=O)[O-])=NNc1nc(-c2ccc(Cl)c(Cl)c2)cs1 (mixture of isomers) [4EGI-1] + N=C(N)NC(=N)NCCc1ccccc1 [Phenformin] (partner 250 µM)
How it was run: as §1

[3] = compound: O=C(O)C(Cc1ccccc1[N+](=O)[O-])=NNc1nc(-c2ccc(Cl)c(Cl)c2)cs1 (mixture of isomers) [4EGI-1] + CC(=O)c1c(C)c2cnc(Nc3ccc(N4CCNCC4)cn3)nc2n(C2CCCC2)c1=O [Palbociclib] (partner 0.5 µM)
How it was run: as §1

[4] = compound: O=C(O)C(Cc1ccccc1[N+](=O)[O-])=NNc1nc(-c2ccc(Cl)c(Cl)c2)cs1 (mixture of isomers) [4EGI-1] + Cc1nc(NC(=O)N2CCC[C@H]2C(N)=O)sc1-c1ccnc(C(C)(C)C(F)(F)F)c1 [Alpelisib] (partner 2 µM)
How it was run: as §1

Row | Cell Line | relative viability ([1]; first compound 0.5 µM) | relative viability ([1]; first compound 1.581 µM) | relative viability ([1]; first compound 5 µM) | relative viability ([1]; first compound 15.81 µM) | relative viability ([1]; first compound 50 µM) | relative viability ([2]; first compound 0.5 µM) | relative viability ([2]; first compound 1.581 µM) | relative viability ([2]; first compound 5 µM) | relative viability ([2]; first compound 15.81 µM) | relative viability ([2]; first compound 50 µM) | relative viability ([3]; first compound 0.5 µM) | relative viability ([3]; first compound 1.581 µM) | relative viability ([3]; first compound 5 µM) | relative viability ([3]; first compound 15.81 µM) | relative viability ([3]; first compound 50 µM) | relative viability ([4]; first compound 0.5 µM) | relative viability ([4]; first compound 1.581 µM) | relative viability ([4]; first compound 5 µM) | relative viability ([4]; first compound 15.81 µM) | relative viability ([4]; first compound 50 µM)
1 | LCLC-103H | 0.557 | 0.479 | 0.537 | 0.434 | 0.394 | 0.337 | 0.349 | 0.34 | 0.354 | 0.287 | 0.495 | 0.49 | 0.503 | 0.457 | 0.347 | 1.01 | 0.866 | 0.866 | 0.879 | 0.879
2 | NCI-H2009 | 0.813 | 0.709 | 0.784 | 0.697 | 0.211 | 0.55 | 0.494 | 0.528 | 0.366 | 0.18 | 0.251 | 0.243 | 0.224 | 0.196 | 0.149 | 1.16 | 1.14 | 1.25 | 1.07 | 0.585
3 | HARA | 0.129 | 0.121 | 0.101 | 0.105 | 0.0717 | 0.593 | 0.506 | 0.497 | 0.41 | 0.376 | 0.32 | 0.243 | 0.295 | 0.222 | 0.202 | 0.935 | 0.921 | 0.837 | 0.833 | 0.295
4 | UMC-11 | 0.192 | 0.198 | 0.203 | 0.201 | 0.21 | 0.384 | 0.365 | 0.334 | 0.28 | 0.237 | 0.345 | 0.34 | 0.378 | 0.365 | 0.305 | 1.06 | 1.03 | 1.12 | 0.898 | 0.306
5 | NCI-H460 | 0.538 | – | 0.45 | 0.144 | 0.314 | 0.549 | – | 0.593 | 0.243 | 0.0399 | 0.169 | 0.05 | 0.245 | 0.141 | 0.0263 | 0.511 | – | 0.493 | 0.197 | 0.0546
6 | NCI-H322M | 0.457 | – | 0.509 | 0.469 | 0.29 | 0.794 | – | 0.891 | 0.689 | 0.301 | 0.461 | – | 0.516 | 0.46 | 0.453 | 0.778 | 0.895 | 0.771 | 0.722 | 0.809
7 | NCI-H1734 | 0.263 | 0.27 | 0.263 | 0.288 | 0.214 | 0.477 | 0.341 | 0.43 | 0.352 | 0.256 | 0.395 | 0.281 | 0.373 | 0.38 | 0.246 | 0.686 | 0.599 | 0.753 | 0.719 | 0.491
8 | NCI-H2170 | 0.829 | 0.728 | 0.628 | 0.617 | 0.314 | 0.419 | 0.452 | 0.426 | 0.333 | 0.274 | 0.423 | 0.363 | 0.382 | 0.392 | 0.273 | 0.865 | 0.803 | 0.849 | 0.768 | 0.344
9 | HCC-15 | 0.331 | 0.377 | 0.5 | 0.308 | 0.155 | 0.494 | – | 0.473 | 0.47 | 0.161 | 0.677 | 0.747 | 0.788 | 0.679 | 0.292 | 0.923 | 0.886 | 0.968 | 0.809 | 0.519
10 | NCI-H1651 | 0.704 | 0.518 | 0.678 | 0.383 | 0.372 | 0.345 | 0.295 | 0.35 | 0.267 | 0.231 | 0.559 | 0.478 | 0.493 | 0.534 | 0.509 | 0.927 | 0.914 | 0.913 | 0.906 | 0.556
11 | LOU-NH91 | 0.671 | – | 0.666 | 0.432 | 0.69 | 0.742 | – | 0.703 | 0.456 | 0.534 | 0.493 | – | 0.519 | 0.581 | 0.52 | 0.814 | – | 0.726 | 0.466 | 0.538
12 | NCI-H3122 | 0.418 | – | 0.387 | 0.334 | 0.116 | 0.372 | – | 0.378 | 0.33 | 0.169 | 0.191 | 0.158 | 0.152 | 0.227 | 0.199 | 0.866 | 0.718 | 0.792 | 0.775 | 0.646
13 | NCI-H1395 | 0.868 | 0.637 | 0.764 | 0.711 | 0.477 | 0.455 | 0.362 | 0.508 | 0.399 | 0.34 | 0.697 | – | 0.634 | 0.594 | 0.485 | 1.19 | – | 1.52 | 1.07 | 0.685
14 | HCC-44 | 0.971 | – | 0.946 | 0.384 | 0.282 | 0.184 | – | 0.192 | 0.118 | 0.137 | 1 | 0.813 | 0.907 | 0.862 | 0.681 | 0.86 | 0.485 | 0.79 | 0.532 | 0.182
15 | EPLC-272H | 0.288 | – | 0.297 | 0.172 | 0.193 | 0.348 | – | 0.302 | 0.273 | 0.158 | 0.317 | – | 0.367 | 0.274 | 0.301 | 0.98 | 0.868 | 0.905 | 0.911 | 0.873
16 | PC-3 [JPC-3] | 0.881 | 0.863 | 0.825 | – | 0.711 | 0.484 | 0.486 | 0.476 | – | 0.431 | 0.472 | – | 0.573 | 0.472 | 0.458 | 1.09 | 0.97 | 0.979 | – | 0.884
17 | SW 1573 | 0.176 | 0.188 | 0.149 | 0.172 | 0.102 | 0.457 | 0.388 | 0.403 | 0.276 | 0.114 | 0.417 | 0.354 | 0.47 | 0.257 | 0.119 | 1.1 | 0.644 | 0.879 | 0.785 | 0.663
